Laboratory results published in patent publication US20170087138A1 (priority 2007, published 2017).
Where a name gives a salt, the structure may show the parent alone.

Assays:
[1] = Solubility of salts in water, pH of the saturated solution and identity of the precipitate; type: physicochemical; conditions: for solubility (in words): table 3; for Precipitate: whether precipitate isolated after solubility determination is identical to the compound dissolved; for Resulting pH: pH in the saturated solution of the salt
Protocol: If the acid is a liquid it was added neat otherwise it was dissolved in the given solvent prior to addition. After mixing and precipitation stirring was continued overnight and the precipitate collected by filtration. Before drying in vacuum at 30° C. a small reference sample was withdrawn and dried at room temperature without vacuum. This procedure was included in order to test for solvates.

[2] = tested on: C57/B6 mice; experiment: Formalin model of neuropathic pain; type: in vivo; conditions: in words
Protocol: The irritation caused by the formalin injection elicits a characteristic biphasic behavioural response, as quantified by the amount of time spent licking the injured paw. The first phase (˜0-10 minutes) represents direct chemical irritation and nociception, whereas the second (˜20-30 minutes) is thought to represent pain of neuropathic origin. The two phases are separated by a quiescent period in which behaviour returns to normal. Measuring the amount of time spent licking the injured paw in the two phases assesses the effectiveness of test compounds to reduce the painful stimuli. Eight C57/B6 mice (ca. 25 g) were tested per group. Table 4 below show the amount of time spent licking the injured paw in the two phases, i.e. 0-5 minutes and 20-30 minutes post formalin injection. The amount of compound administered is calculated as the free base.

[3] = tested on: extracellular levels of acetylcholine in the prefrontal cortex and ventral hippocampus; experiment: Microdialysis: extracellular acetylcholine levels in freely-moving rats; type: in vivo; conditions: rat, FIGS. 10A and 10B
Protocol: The experiment was designed to evaluate the effects of compounds of the present invention on extracellular levels of acetylcholine in the prefrontal cortex and ventral hippocampus of freely-moving rats.
Male Sprague-Dawley rats, initially weighing 275-300 g, were used. The animals were housed under a 12-hr light/dark cycle under controlled conditions for regular in-door temperature (21±2° C.) and humidity (55±5%) with food and tap water available ad libitum.
Rats were anaesthetised with hypnorm/dormicum (2 ml/kg) and intracerebral guide cannulas (CMA/12) were stereotaxically implanted into the hippocampus, aiming to position the dialysis probe tip in the ventral hippocampus (co-ordinates: 5.6 mm posterior to bregma, lateral −5.0 mm, 7.0 mm ventral to dura or in the frontal cortex (co-ordinates: 3.2 mm anterior to bregma; lateral, 0.8 mm; 4.0 mm ventral to dura). Anchor screws and acrylic cement were used for fixation of the guide cannulas. The body temperature of the animals was monitored by rectal probe and maintained at 37° C. The rats were allowed to recover from surgery for 2 days, housed singly in cages. On the day of the experiment a microdialysis probe (CMA/12, 0.5 mm diameter, 3 mm length) was inserted through the guide cannula.
The probes were connected via a dual channel swivel to a microinjection pump. […]

[4] = molecular target: T1, human-homomeric 5-HT3A receptors (Homo sapiens, UniProt P46098); experiment: 5-HT3A receptor antagonism, voltage clamp in Xenopus oocytes; type: cell-based; conditions: higher concentrations (100-100000 nM)
T1 sequence (P46098 24-478): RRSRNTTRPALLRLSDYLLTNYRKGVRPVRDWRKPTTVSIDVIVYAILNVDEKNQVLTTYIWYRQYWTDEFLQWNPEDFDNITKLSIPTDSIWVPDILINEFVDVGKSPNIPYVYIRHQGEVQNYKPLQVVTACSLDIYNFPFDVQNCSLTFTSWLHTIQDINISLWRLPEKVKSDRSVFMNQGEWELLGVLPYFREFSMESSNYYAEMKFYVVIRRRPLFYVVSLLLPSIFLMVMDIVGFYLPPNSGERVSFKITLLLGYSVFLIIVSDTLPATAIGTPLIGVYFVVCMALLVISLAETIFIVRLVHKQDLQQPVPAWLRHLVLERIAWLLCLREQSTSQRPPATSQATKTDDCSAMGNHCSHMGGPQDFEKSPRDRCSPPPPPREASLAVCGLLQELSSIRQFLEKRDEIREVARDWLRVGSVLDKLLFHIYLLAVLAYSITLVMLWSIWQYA
Protocol: The experiments were carried out as follows. […] Oocytes avoid of the follicle layer were selected and incubated for 24 hours in Modified Barth's Saline buffer [88 mM NaCl, 1 mM KCl, 15 mM HEPES, 2.4 mM NaHCO3, 0.41 mM CaCl2, 0.82 mM MgSO4, 0.3 mM Ca(NO3)2] supplemented with 2 mM sodium pyruvate, 0.1 U/l penicillin and 0.1 μg/l streptomycin. Stage IV-IV oocytes were identified and injected with 12-48 nl of nuclease free water containing 14-50 pg of cRNA coding for human 5-HT3A receptors and incubated at 18° C. until they were used for electrophysiological recordings (1-7 days after injection). […] Cells were impaled with agar plugged 0.5-1 MΩ electrodes containing 3 M KCl and voltage clamped at −90 mV by a GeneClamp 500B amplifier. The oocytes were continuously perfused with Ringer buffer and the drugs were applied in the perfusate.

[5] = tested on: healthy volunteers; experiment: Multiple dose clinical trial, vital signs including blood pressure; type: in vivo, human; conditions: up to 30 mg/day
Excerpt: 49 subjects received active compound and 21 subjects received placebo.

Cc1ccc(Sc2ccccc2C2CCNCC2)cc1 (racemic)
solubility (in words) [1]: exceptionally high solubility | Precipitate [1]: =start (after

Cc1ccc(Sc2ccccc2C2CCNCC2)cc1 [Adipicacid, 1,6-hexanedioic acid 2:1]
Precipitate [1]: =start

Cc1ccc(Sc2ccccc2C2CCNCC2)cc1 [Citric acid 2:1]
Precipitate [1]: =Start

Cc1ccc(Sc2ccccc2C2CCNCC2)cc1 [Compound I, 4-[2-(4-methylphenylsulfanyl)-phenyl]piperidine]
effect in the first phase (direct chemical irritation and nociception) [2]: little effect | time spent licking paws in the second phase [2]: clear and dose dependent decrease | extra cellular level of acetylcholine in the prefrontal cortex and the hippocampus [3]: increase | maximal current, of the maximal current elicited by 5-HT itself [4]: 70-80% | blood pressure [5]: only at the highest dose were there signs of elevated blood pressure

Cc1ccc(Sc2ccccc2C2CCNCC2)cc1 [D-tartaric acid, D-2,3-dihydroxy butanedioic acid 1:1]
Precipitate [1]: Hydrate

Cc1ccc(Sc2ccccc2C2CCNCC2)cc1 [Fumaric acid 1:1]
Precipitate [1]: =start

Cc1ccc(Sc2ccccc2C2CCNCC2)cc1 [Glutamic acid 1:1]
solubility (in words) [1]: exceptionally high solubility

Cc1ccc(Sc2ccccc2C2CCNCC2)cc1 [Glutaric acid, 1,5-pentanedioic acid 1:1]
solubility (in words) [1]: exceptionally high solubility | Precipitate [1]: =start

Cc1ccc(Sc2ccccc2C2CCNCC2)cc1 [HBr, 4-(2-(4-tolylsulfanyl)phenyl)-piperidin hydrobromide]
Resulting pH ([1]; hydrobromide): 7.0 | Precipitate ([1]; hydrobromide): =Start

Cc1ccc(Sc2ccccc2C2CCNCC2)cc1 [HCl]
Precipitate [1]: =Start

Cc1ccc(Sc2ccccc2C2CCNCC2)cc1 [Oxalic acid 1:1]
Precipitate [1]: =Start

Cc1ccc(Sc2ccccc2C2CCNCC2)cc1 [Phosphoric acid 1:1]
Resulting pH [1]: 2.0

Cc1ccc(Sc2ccccc2C2CCNCC2)cc1 [Sebacoinic acid, 1,8-octanedioic acid 2:1]
Precipitate [1]: =Start
